Assay results: patent publication US20260250325A1, “Antiviral Polypeptide Membrane Fusion Inhibitor, and Preparation Method and Application Thereof” (priority 2025, published 2026)
Where a SMILES comes first, the peptide text is derived from it. The star is where a group is joined. Succinyl(4-O-cholesteryl) = CC(C)CCC[C@@H](C)[C@H]1CC[C@H]2[C@@H]3CC=C4C[C@@H](OC(=O)CCC(=O)*)CC[C@]4(C)[C@H]3CC[C@]12C

Legend:
[1] = Cytotoxicity test in HEp-2 cells (CCK8 cell viability); assay type: cell-based; conditions: human; HEp-2 cells, CCK8, 1 day; read-out: CC50
Outline: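 HEp-2 cells seeded at 30,000/well, cultured overnight at 37° C./5% CO2, then exposed to diluted compound for 1 day in 0.5% DMSO. Viability read by CCK8, normalised to untreated-cell and medium-only controls; CC50 from four-parameter variable-slope fit.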

[2] = target: T1, hMPV-N46 (127-172) (Human metapneumovirus, UniProt Q6WB98); test: SPR affinity to hMPV-N46 coupled on CM5 chip; assay type: binding
T1 construct: hMPV-N46 (127-172)
T1 sequence (Q6WB98 127-172): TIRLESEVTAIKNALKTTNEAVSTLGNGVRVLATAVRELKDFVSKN
Procedure: hMPV and hPIV were two viruses having a typical Class I fusion protein-F protein. An F protein precursor F0 was cracked into F1 and F2 subunits. […] When the compound flowed through a chip surface, changes in an SPR signal were monitored in real time, binding and dissociation processes were recorded, and a binding rate constant (ka) and a dissociation rate constant (kd) were further obtained through kinetic analysis, thereby calculating an equilibrium dissociation constant (KD=kd/ka).
A CM5 chip with a catalog number 29149603, an amino coupling reagent kit with a catalog number BR100050, HBS-EP+Buffer (10×), sodium acetate (pH 4.0), and a 10 mM glycine-HCl buffer (pH 2.0) were all purchased from GE Health.
CM5 chip coupling: Channels 2 and 4 of the CM5 chip were activated for 7 min by using a freshly-prepared mixture of 50 mM Hydroxy succinimide (NHS) and 200 mM 1-(3-Dimethylaminopropyl)-3-ethylcarbodiimide (EDC) according to 1:1; and then, hMPV-N46 or hPIV-N51 was diluted and dissolved with sodium acetate with 4.0 pH to a concentration of 30 μM, with a flow rate of 10 μl/min and time of 600 s. An experimental buffer was HBS-EP+buffer (1×). Finally, the chip was blocked with 1 M ethanolamine. The instrument was set to a temperature of 25° C.
Affinity detection: the buffer used in the experiment was HBS-EP+buffer (1×), and a multi-cycle dynamic mode was used. Channels 1 and 3 of the chip served as blank reference channels; polypeptides to be detected sequentially flowed through Channels 2 and 4 at concentrations of 0 μM, 0.04 µM, 0.12 µM, 0.37 μM, 1.11 µM, 3.33 µM, 10 µM, and 30 μM; the flow rate was 30 μl/min, binding was performed for 180 s, and dissociation was performed for 120 s. Finally, the chip was regenerated by injecting 10 mM glycine (pH 2.0). The instrument was set to a temperature of 25° C.

Molecule	CC50 at 1 day [1]	Kd [2]
CC[C@H](C)[C@H](NC(=O)[C@H](CO)NC(=O)[C@H](C)NC(=O)[C@H](CC(=O)O)NC(=O)[C@H](Cc1ccccc1)NC(C)=O)C(=O)N[C@@H](CCC(=O)O)C(=O)N[C@@H](CCC(=O)O)C(=O)N[C@H](C(=O)N[C@@H](CC(N)=O)C(=O)N[C@@H](CCCNC(=N)N)C(=O)N[C@@H](CCCNC(=N)N)C(=O)N[C@H](C(=O)N[C@@H](CCC(=O)O)C(=O)N[C@@H](CCC(=O)O)C(=O)N[C@@H](CO)C(=O)N[C@@H](CC(C)C)C(=O)N[C@@H](CCCNC(=N)N)C(=O)N[C@@H](CCCNC(=N)N)C(=O)N[C@H](C(=O)N[C@@H](CCC(=O)O)C(=O)N[C@@H](CCC(=O)O)C(=O)N[C@@H](CO)C(=O)N[C@@H](CC(=O)O)C(=O)N[C@@H](CCCNC(=N)N)C(=O)N[C@@H](CCCNC(=N)N)C(=O)N[C@@H](CC(C)C)C(=O)N[C@@H](CCC(=O)O)C(=O)N[C@@H](CCC(=O)O)C(=O)N[C@H](C(=O)N[C@@H](CC(N)=O)C(=O)N[C@@H](C)C(=O)N[C@@H](CCC(=O)O)C(=O)N[C@@H](C)C(=O)N[C@@H](C)C(=O)N[C@@H](C)C(=O)N[C@@H](CCCCN)C(=O)N[C@@H](CCCCNC(=O)CCC(=O)O[C@H]1CC[C@@]2(C)C(=CC[C@H]3[C@@H]4CC[C@H]([C@H](C)CCCC(C)C)[C@@]4(C)CC[C@@H]32)C1)C(N)=O)C(C)C)[C@@H](C)CC)[C@@H](C)CC)C(C)C [Compound 42] (Ac-FDASIEEVNRRIEESLRRIEESDRRLEEVNAEAAAKK(Succinyl(4-O-cholesteryl))-NH2)	3.71 µM	0.533 µM
CC[C@H](C)[C@H](NC(=O)[C@H](CO)NC(=O)[C@H](C)NC(=O)[C@H](CC(=O)O)NC(=O)[C@H](Cc1ccccc1)NC(=O)[C@H](CCC(=O)O)NC(=O)[C@H](CC(=O)O)NC(=O)[C@H](Cc1c[nH]c2ccccc12)NC(C)=O)C(=O)N[C@@H](CCC(=O)O)C(=O)N[C@@H](CCC(=O)O)C(=O)N[C@H](C(=O)N[C@@H](CC(N)=O)C(=O)N[C@@H](CCCNC(=N)N)C(=O)N[C@@H](CCCNC(=N)N)C(=O)N[C@H](C(=O)N[C@@H](CCC(=O)O)C(=O)N[C@@H](CCC(=O)O)C(=O)N[C@@H](CO)C(=O)N[C@@H](CC(C)C)C(=O)N[C@@H](CCCNC(=N)N)C(=O)N[C@@H](CCCNC(=N)N)C(=O)N[C@H](C(=O)N[C@@H](CCC(=O)O)C(=O)N[C@@H](CCC(=O)O)C(=O)N[C@@H](CO)C(=O)N[C@@H](CC(=O)O)C(=O)N[C@@H](CCCNC(=N)N)C(=O)N[C@@H](CCCNC(=N)N)C(=O)N[C@@H](CC(C)C)C(=O)N[C@@H](CCC(=O)O)C(=O)N[C@@H](CCC(=O)O)C(=O)N[C@H](C(=O)N[C@@H](CCC(=O)O)C(=O)N[C@@H](C)C(=O)N[C@@H](C)C(=O)N[C@@H](C)C(=O)N[C@@H](CCCCN)C(=O)N[C@@H](CCCCNC(=O)CCC(=O)O[C@H]1CC[C@@]2(C)C(=CC[C@H]3[C@@H]4CC[C@H]([C@H](C)CCCC(C)C)[C@@]4(C)CC[C@@H]32)C1)C(N)=O)C(C)C)[C@@H](C)CC)[C@@H](C)CC)C(C)C [Compound 43] (Ac-WDEFDASIEEVNRRIEESLRRIEESDRRLEEVEAAAKK(Succinyl(4-O-cholesteryl))-NH2)	12.2 µM	71.4 µM
CC[C@H](C)[C@H](NC(=O)[C@H](CCCCN)NC(=O)[C@H](CCCCN)NC(=O)[C@H](CC(C)C)NC(=O)[C@H](CO)NC(=O)[C@H](CCC(=O)O)NC(=O)[C@H](CCC(=O)O)NC(=O)[C@@H](NC(=O)[C@H](CCCCN)NC(=O)[C@H](CCCCN)NC(=O)[C@H](CC(N)=O)NC(=O)[C@@H](NC(=O)[C@H](CCC(=O)O)NC(=O)[C@H](CCC(=O)O)NC(=O)[C@@H](NC(=O)[C@H](CCCCN)NC(=O)[C@H](CCCCN)NC(=O)[C@H](CC(=O)O)NC(=O)[C@H](Cc1ccccc1)NC(=O)[C@H](CCC(=O)O)NC(=O)[C@H](CC(=O)O)NC(=O)[C@H](Cc1c[nH]c2ccccc12)NC(C)=O)[C@@H](C)CC)C(C)C)[C@@H](C)CC)C(=O)N[C@@H](CCC(=O)O)C(=O)N[C@@H](CCC(=O)O)C(=O)N[C@@H](CO)C(=O)N[C@@H](CC(=O)O)C(=O)N[C@@H](CCCCN)C(=O)N[C@@H](CCCCN)C(=O)N[C@@H](CC(C)C)C(=O)N[C@@H](Cc1c[nH]cn1)C(=O)N[C@@H](CC(N)=O)C(=O)N[C@H](C(=O)N[C@@H](CCC(=O)O)C(=O)N[C@@H](C)C(=O)N[C@@H](C)C(=O)N[C@@H](C)C(=O)N[C@@H](CCCCN)C(=O)N[C@@H](CCCCNC(=O)CCC(=O)O[C@H]1CC[C@@]2(C)C(=CC[C@H]3[C@@H]4CC[C@H]([C@H](C)CCCC(C)C)[C@@]4(C)CC[C@@H]32)C1)C(N)=O)C(C)C [Compound 44] (Ac-WDEFDKKIEEVNKKIEESLKKIEESDKKLHNVEAAAKK(Succinyl(4-O-cholesteryl))-NH2)	26.5 µM	0.149 µM
CC[C@H](C)[C@H](NC(=O)[C@H](CO)NC(=O)[C@H](C)NC(=O)[C@H](CC(=O)O)NC(=O)[C@H](Cc1ccccc1)NC(=O)[C@H](CCC(=O)O)NC(=O)[C@H](CC(=O)O)NC(=O)[C@H](Cc1c[nH]c2ccccc12)NC(C)=O)C(=O)N[C@@H](CO)C(=O)N[C@@H](CCC(N)=O)C(=O)N[C@H](C(=O)N[C@@H](CC(N)=O)C(=O)N[C@@H](CCC(=O)O)C(=O)N[C@@H](CCCCN)C(=O)N[C@H](C(=O)N[C@@H](CC(N)=O)C(=O)N[C@@H](CCC(N)=O)C(=O)N[C@@H](CO)C(=O)N[C@@H](CC(C)C)C(=O)N[C@@H](CCC(=O)O)C(=O)N[C@@H](CCC(=O)O)C(=O)N[C@H](C(=O)N[C@@H](CCCNC(=N)N)C(=O)N[C@@H](CCCCN)C(=O)N[C@@H](CO)C(=O)N[C@@H](CC(=O)O)C(=O)N[C@@H](CCC(=O)O)C(=O)N[C@@H](CC(C)C)C(=O)N[C@@H](CC(C)C)C(=O)N[C@@H](Cc1c[nH]cn1)C(=O)N[C@@H](CC(N)=O)C(=O)N[C@@H](CCC(=O)O)C(=O)N[C@@H](C)C(=O)N[C@@H](C)C(=O)N[C@@H](C)C(=O)N[C@@H](CCCCN)C(=O)N[C@@H](CCCCNC(=O)CCC(=O)O[C@H]1CC[C@@]2(C)C(=CC[C@H]3[C@@H]4CC[C@H]([C@H](C)CCCC(C)C)[C@@]4(C)CC[C@@H]32)C1)C(N)=O)[C@@H](C)CC)[C@@H](C)CC)C(C)C [Compound 45] (Ac-WDEFDASISQVNEKINQSLEEIRKSDELLHNEAAAKK(Succinyl(4-O-cholesteryl))-NH2)	9.94 µM	70.6 µM
CC[C@H](C)[C@H](NC(=O)[C@H](CCCCN)NC(=O)[C@H](CCCCN)NC(=O)[C@H](CC(C)C)NC(=O)[C@H](CO)NC(=O)[C@H](CCC(N)=O)NC(=O)[C@H](CC(N)=O)NC(=O)[C@@H](NC(=O)[C@H](CCCCN)NC(=O)[C@H](CCCCN)NC(=O)[C@H](CC(=O)O)NC(=O)[C@H](Cc1ccccc1)NC(=O)[C@H](CCC(=O)O)NC(=O)[C@@H](NC(=O)[C@H](CCCCN)NC(=O)[C@H](CCCCN)NC(=O)[C@H](CC(N)=O)NC(=O)[C@@H](NC(=O)[C@H](CC(C)C)NC(=O)[C@H](CCC(=O)O)NC(=O)[C@H](CC(=O)O)NC(=O)[C@H](CO)NC(C)=O)C(C)C)[C@@H](C)CC)[C@@H](C)CC)C(=O)N[C@@H](CCC(=O)O)C(=O)N[C@@H](CCC(=O)O)C(=O)N[C@@H](CO)C(=O)N[C@@H](CC(=O)O)C(=O)N[C@@H](CCCCN)C(=O)N[C@@H](CCCCN)C(=O)N[C@@H](CCCCN)C(=O)N[C@@H](CC(C)C)C(=O)N[C@@H](CCC(=O)O)C(=O)N[C@@H](C)C(=O)N[C@@H](C)C(=O)N[C@@H](C)C(=O)N[C@@H](CCCCN)C(=O)N[C@@H](CCCCN)C(N)=O [Compound 51] (Ac-SDELVNKKIEFDKKINQSLKKIEESDKKKLEAAAKK-NH2)	3.2 µM	0.0144 µM
Ac-LVKKIDEFDASISQVNEKINQSLEEIRKSDELLHNVGSGSGK(Succinyl(4-O-cholesteryl))-NH2 [Compound 29]	15 µM	0.0483 µM
Ac-WDEFDASISQVNEKINQSLEEIRKSDELLHNVNALEAAAKK(Succinyl(4-O-cholesteryl))-NH2 [Compound 38]	10.9 µM	0.392 µM
